In patent US20130243847A1, “ACTIVATED CREATININE AND PRECURSORS THEREOF AS ANTIBACTERIAL AGENTS, COMPOSITIONS AND PRODUCTS CONTAINING SUCH AGENTS AND USE THEREOF” (BOARD OF REGENTS OF THE UNIVERSITY OF NEBRASKA, priority 2010, published 2013):
Entries after “also recorded” stand apart in the source; their conditions may differ.

Columns and labels:
Assay type in all cases: cell-based
M. luteus = test: Growth in broth with CEE at different concentrations (Example 3, FIG. 2B); conditions: broth culture, absorbance over time
Method: The CEE precursor of antibacterially-activated CRN was diluted at different concentrations into Lederberg's broth (LB), which was then inoculated to 10^4/mL with S. aureus. The cultures were incubated in capped plastic tubes at 37° C. and aerated by tumbling using a tube rotating device.
A similar experiment was conducted with the same precursor of antibacterially-activated CRN and tested on M. luteus.

S. aureus UAMS-1 = test: Bactericidal test in overnight culture (Example 5, FIG. 4); conditions: 200 mM
Method: S. aureus UAMS-1 was started from a static overnight, grown for 3 hours, then 0.2 mL was added to 3 different 50 mL cultures for control, CRN and CEE. These were shaken 30 min. at 37° C., an aliquot was removed prior to the addition of a precursor of antibacterially-activated CRN, CEE, or antibacterially-activated CRN, and the starting titer was determined. Powdered CEE or crystal CRN was added directly to the 50 mL cultures to a final concentration of 200 mM. The cultures were shaken overnight and the absorbance (A) and colony forming units (cfu) were determined.

S. aureus [1] = test: Disc diffusion assay of creatine esters (Example 6); conditions: approx. 50 μL anhydrous polyethylene glycol carrier with 28% by weight agent
Method: Four (4) different creatine esters were prepared according to the method of U.S. Pat. No. 6,897,334 to Vennerstrom. The esters thus prepared were activated in the manner described herein to impart antibacterial activity thereto. Four (4) test formulations were prepared, each including approximately 50 μL of an anhydrous polyethylene glycol carrier containing 28% by weight of a different creatine ester. Each formulation was added to a 6 mm disc and inverted onto a brain heart infusion agar plate that was previously spread with S. aureus at 10^5 organisms per mL. Plates were incubated at 37° C. overnight and the clear zones showing inhibition of bacterial growth were measured.

S. aureus [2] = test: Disc diffusion assay in hydrogel carrier (Example 8)
Method: Separate formulations of antibacterially-activated CRN and a precursor of antibacterially-activated CRN, CEE, were prepared by admixing the respective antibacterial agent with a hydrogel (Advanced Medical Solutions Ltd, UK.) in varying amounts to provide final concentrations of 1 M, 500 mM, 250 mM and 125 mM. Approximately 50 μL of each formulation at the four (4) different molar concentrations was added to a 6 mm disc and inverted onto a brain heart infusion agar plate that was previously spread with S. aureus suspended in PBS at 10^5 organisms per mL. Plates were incubated at 37° C. overnight and clear zones showing inhibition of bacterial growth were measured. The hydrogel carrier including no bacterial agent (0 mM) was used as a control.

Bacillus subtilis = test: Disc diffusion assay, odor causing microorganisms (Example 11); conditions: 25 mg anhydrous formulation (28% by weight) on filter disc
Method: (§1) Twenty-five milligrams of an anhydrous formulation of either antibacterially-activated CRN or a precursor of antibacterially-activated CRN, CEE, was prepared as described in Example 2, applied to a filter disc and tested for inhibition of bacterial growth of several odor causing microorganisms in a standard disc diffusion assay using Eridex™ (Cargill Inc. Cedar Rapids, Iowa) or creatine monohydrate containing no antibacterial agent as controls. […] The zones of inhibition for CRN or lack thereof for control test samples for B. linens and M. luteus are illustrated in FIGS. 10A and 10B respectively.

Brevibacterium linens = test: as above; conditions: 25 mg anhydrous formulation (28% by weight) on filter disc
Method: as §1

Micrococcus luteus = test: as above; conditions: 25 mg anhydrous formulation (28% by weight) on filter disc
Method: as §1

[3] = system: Staphylococcus epidermidis; test: as above; conditions: 25 mg anhydrous formulation (28% by weight) on filter disc
Method: as §1

Saccharomyces sp. [4] = test: Selective growth on LBD agar, mixture of Micrococcus sp. and Saccharomyces sp. (Example 12, FIG. 11A)
Method: Colonies of Micrococcus sp. and Saccharomyces sp. grown on LB agar supplemented with 1% dextrose (LBD) were suspended in PBS to 0.30 A580 nm. An equal volume of the two organisms was combined and the mixture streaked onto LBD agar alone or LBD containing CEE and incubated at 37 C for 24 hours.

Rhodotorula sp. [5] = test: Selective growth on LBD, mixture of S. aureus and Rhodotorula sp. (Example 12, FIG. 11B); conditions: 200-400 mM CEE in LBD, 37° C., 36 hours
Method: Colonies of S. aureus and Rhodotorula sp. grown on LB agar supplemented with 1% dextrose (LBD) were suspended in PBS to 0.30 A580 nm. An equal volume of the two organisms was combined and the mixture streaked onto wells containing only LBD (None) or LBD supplemented with a precursor of antibacterially-activated CRN, CEE, and incubated at 37° C. for 36 hours.

Micrococcus sp. = test: Selective growth on BHI agar, mixture of three organisms (Example 12, FIG. 11C)
Method: (§2) Colonies of Micrococcus sp., Rhodotorula sp. and Saccharomyces sp. grown on brain heart infusion agar (BHI) were suspended in PBS to 0.30 OD, 580 nm. An equal volume of the three (3) organisms were combined and the mixture streaked onto plates containing BHI agar alone or BHI agar supplemented with a precursor of antibacterially-activated CRN, CEE, and incubated 48 hours at 37° C.

Rhodotorula sp. [6] = test: as above
Method: as §2

Saccharomyces sp. [7] = test: as above
Method: as §2

[8] = 300 and 400 mM CEE in BHI agar (data not shown)
[9] = 100 mM and 200 mM CEE in BHI agar, 48 hours, 37° C.

CCOC(=O)CN(C)C(=N)N [CEE, creatine ethyl ester]
concentration that inhibited growth of M. luteus (M. luteus): approximately 1 mM | colonies from 1 mL of treated culture plated on solid media (S. aureus UAMS-1; overnight culture, 48 hours incubation of plates, control 3×10^9 per mL): no colonies | bactericidal action for S. aureus (S. aureus UAMS-1; starting at about 1×10^3 organisms per mL): bacteriocidal; also recorded: bactericidal | Zone of Inhibition (S. aureus [1]): 20 mm | zone of inhibition at 125000 µM (S. aureus [2]; Staphylococcus aureus): 7 mm | zone of inhibition at 250000 µM (S. aureus [2]; Staphylococcus aureus): 10 mm | zone of inhibition at 500000 µM (S. aureus [2]; Staphylococcus aureus): 15 mm | Zone of Inhibition (S. aureus [2]; hydrogel, 1M, approx. 50 μL): 20 mm | ZONE OF INHIBITION (Bacillus subtilis): 20 mm | ZONE OF INHIBITION (Brevibacterium linens): 40 mm | ZONE OF INHIBITION (Micrococcus luteus): 22 mm | ZONE OF INHIBITION [3]: 27 mm | selectivity of media for yeast over Micrococcus sp. (Saccharomyces sp. [4]; 200 mM CEE in LBD agar, 37 C, 24 hours): selective for Saccharomyces | growth of Saccharomyces (Saccharomyces sp. [4]; 300-400 mM CEE in LBD agar (data not shown)): supported growth of Saccharomyces | growth of Rhodotorula (Rhodotorula sp. [5]): did not retard growth | growth of Micrococcus (Micrococcus sp.; 100 mM CEE in BHI agar, 48 hours, 37° C.): greatly retarded | growth of Micrococcus (Micrococcus sp.; 200 mM CEE in BHI agar, 48 hours, 37° C.): completely inhibited | growth of Micrococcus (Micrococcus sp.; [8]): inhibited the growth of Micrococcus | growth of Rhodotorula (Rhodotorula sp. [6]; [9]): enhanced | growth of Rhodotorula (Rhodotorula sp. [6]; [8]): did not affect the growth | growth of Saccharomyces (Saccharomyces sp. [7]; [9]): enhanced | growth of Saccharomyces (Saccharomyces sp. [7]; [8]): did not affect the growth
